In patent US20260055104A1, “CRYSTAL FORM OF HETEROARYL DERIVATIVE PARP INHIBITOR AND USE THEREOF” (priority 2022, published 2026):
Blank lines part the entries; values can stand above or below the compound they belong to.

Columns and labels:
[1] = Stability test of crystal form (purity by HPLC); format: physicochemical
Method: Samples were taken and tested at 92.5% RH, 40° C. and 60° C. respectively. The purity (represented by a percentage) was detected by HPLC.
With regard to methods for preparing test solutions and conditions for detecting purity by HPLC, reference was made to Tables 13 and 14.

[2] = system: MDA-MB-436 subcutaneous transplanted tumor; assay: Mouse MDA-MB-436 subcutaneous in vivo transplanted tumor model; design: species or system BALB/c nude mice
Method: Human breast cancer cells MDA-MB-436 were placed in Leibovitz's L-15 medium (supplemented with 10 μg/mL insulin, 16 μg/mL glutathione, 10% fetal bovine serum and 1% penicillin-streptomycin solution) and cultured at 37° C. Conventional digestion treatment with trypsin was performed twice a week for passage. When the cell saturation was 80%-90%, and the number reached the requirement, the cells were harvested, counted, and inoculated. BALB/c nude mice (from Beijing Vital River Laboratory Animal Technology Co., Ltd.) were subcutaneously inoculated with 0.2 mL (10×10^6) of MDA-MB-436 cells (plus matrigel, with the volume ratio of 1:1) on the right back. When the average tumor volume reached about 180 mm^3, grouping and administration were performed (marked as Day 0). The solvent group was given 5% DMSO, 30% PEG400 and 65% of 20% sulfobutyl-β-cyclodextrin solution, and the administration group was given the compound (Day 0-Day 10:1 mg/kg; Day 11-Day 28:0.1 mg/kg). The administration frequency was once a day, the administration cycle was 29 days, and the drug withdrawal observation period was set to 14 days. After grouping, the tumor diameter was measured twice a week with a vernier caliper. The formula for calculating the tumor volume was: V=0.5×a×b^2, where a and b represented the long and short diameters of the tumor, respectively.

[3] = Pharmacokinetic test in rats; format: in vivo, SD rats; conditions: rat, i.g. 10 mg/kg
Method: • 1.1 Experimental animals: male SD rats, about 220 g, 6-8 weeks old, 6 rats/compound. Purchased from Chengdu Ddossy Experimental Animals Co., Ltd. • 1.2 Experimental design: on the day of the experiment, 6 SD rats were randomly grouped according to their body weights. The animals were fasted with water available for 12 to 14 h one day before the administration and were fed 4 h after the administration. [table] Before and after the administration, 0.15 mL of blood was taken from the orbit of the animals under isoflurane anesthesia and placed in an EDTAK2 centrifuge tube. The blood was centrifuged at 5000 rpm and 4° C. for 10 min to collect plasma. The blood collection time points for the intravenous administration group and intragastric administration group were: 0, 5 min, 15 min, 30 min, 1 h, 2 h, 4 h, 6 h, 8 h and 24 h. Before analysis and detection, all samples were stored at −80° C. The samples were analyzed quantitatively by LC-MS/MS.

[4] = system: Human breast cancer cells MDA-MB-436; assay: MDA-MB-436 cell activity test (CellTiter-Glo); format: cell-based; conditions: 168 h, MDA-MB-436, 7 days incubation
Method: On day 1, the cells in the exponential growth phase were collected, and the cell suspension was adjusted to 4000 cells/135 μL with the culture medium. 135 μL of the cell suspension was added to each well of a 96-well cell culture plate and incubated overnight. On day 2, compounds at different concentrations were added, and the plate was placed in the incubator and incubated for 7 days. After the incubation was completed, according to operation instructions for a CellTiter-Glo kit (Promega, G7573), 75 μL of CTG solution, which had already been pre-melted and equilibrated to room temperature, was added to each well, and the mixture was uniformly mixed for 2 min using a microplate shaker. The plate was placed at room temperature for 10 min, and then […] signal values were measured using an Envision2104 plate reader (PerkinElmer). […] The IC50 value was calculated using GraphPad Prism software.

Maximum individual impurity ([1]; 0 d): 0.494% | RRT 0.31 impurity ([1]; 0 d): 0.494% | RRT 0.36 impurity ([1]; 0 d): 0.071% | RRT 0.49 impurity ([1]; 0 d): 0.170% | RRT 0.72 impurity ([1]; 0 d): 0.248% | RRT 1.00 (purity by HPLC) ([1]; 0 d): 98.425% | RRT 1.14 impurity ([1]; 0 d): 0.065% | RRT 1.33 impurity ([1]; 0 d): 0.079% | Total impurity ([1]; 0 d): 1.575% | Maximum individual impurity ([1]; 40° C.-6 d): 0.438% | RRT 0.31 impurity ([1]; 40° C.-6 d): 0.438% | RRT 0.36 impurity ([1]; 40° C.-6 d): 0.097% | RRT 0.49 impurity ([1]; 40° C.-6 d): 0.195% | RRT 0.72 impurity ([1]; 40° C.-6 d): 0.241% | RRT 1.00 (purity by HPLC) ([1]; 40° C.-6 d): 98.494% | RRT 1.14 impurity ([1]; 40° C.-6 d): 0.071% | RRT 1.33 impurity ([1]; 40° C.-6 d): 0.069% | Total impurity ([1]; 40° C.-6 d): 1.506% | Maximum individual impurity ([1]; 40° C.-10 d): 0.507% | RRT 0.31 impurity ([1]; 40° C.-10 d): 0.507% | RRT 0.36 impurity ([1]; 40° C.-10 d): 0.100% | RRT 0.49 impurity ([1]; 40° C.-10 d): 0.194% | RRT 0.72 impurity ([1]; 40° C.-10 d): 0.232% | RRT 1.00 (purity by HPLC) ([1]; 40° C.-10 d): 98.459% | RRT 1.14 impurity ([1]; 40° C.-10 d): 0.069% | RRT 1.33 impurity ([1]; 40° C.-10 d): 0.061% | Total impurity ([1]; 40° C.-10 d): 1.541% | Maximum individual impurity ([1]; 40° C.-30 d): 0.467% | RRT 0.31 impurity ([1]; 40° C.-30 d): 0.467% | RRT 0.36 impurity ([1]; 40° C.-30 d): 0.115% | RRT 0.49 impurity ([1]; 40° C.-30 d): 0.144% | RRT 0.72 impurity ([1]; 40° C.-30 d): 0.252% | RRT 1.00 (purity by HPLC) ([1]; 40° C.-30 d): 98.519% | RRT 1.14 impurity ([1]; 40° C.-30 d): 0.077% | RRT 1.33 impurity ([1]; 40° C.-30 d): 0.060% | Total impurity ([1]; 40° C.-30 d): 1.481% | Maximum individual impurity ([1]; 60° C.-6 d): 0.452% | RRT 0.31 impurity ([1]; 60° C.-6 d): 0.452% | RRT 0.36 impurity ([1]; 60° C.-6 d): 0.097% | RRT 0.49 impurity ([1]; 60° C.-6 d): 0.193% | RRT 0.72 impurity ([1]; 60° C.-6 d): 0.229% | RRT 1.00 (purity by HPLC) ([1]; 60° C.-6 d): 98.522% | RRT 1.14 impurity ([1]; 60° C.-6 d): 0.070% | RRT 1.33 impurity ([1]; 60° C.-6 d): 0.064% | Total impurity ([1]; 60° C.-6 d): 1.478% | Maximum individual impurity ([1]; 60° C.-10 d): 0.498% | RRT 0.31 impurity ([1]; 60° C.-10 d): 0.498% | RRT 0.36 impurity ([1]; 60° C.-10 d): 0.103% | RRT 0.49 impurity ([1]; 60° C.-10 d): 0.206% | RRT 0.72 impurity ([1]; 60° C.-10 d): 0.247% | RRT 1.00 (purity by HPLC) ([1]; 60° C.-10 d): 98.447% | RRT 1.14 impurity ([1]; 60° C.-10 d): 0.068% | RRT 1.33 impurity ([1]; 60° C.-10 d): 0.069% | Total impurity ([1]; 60° C.-10 d): 1.553% | Maximum individual impurity ([1]; 60° C.-30 d): 0.457% | RRT 0.31 impurity ([1]; 60° C.-30 d): 0.457% | RRT 0.36 impurity ([1]; 60° C.-30 d): 0.112% | RRT 0.49 impurity ([1]; 60° C.-30 d): 0.145% | RRT 0.72 impurity ([1]; 60° C.-30 d): 0.244% | RRT 1.00 (purity by HPLC) ([1]; 60° C.-30 d): 98.499% | RRT 1.14 impurity ([1]; 60° C.-30 d): 0.084% | RRT 1.33 impurity ([1]; 60° C.-30 d): 0.056% | Total impurity ([1]; 60° C.-30 d): 1.501% | chemical stability ([1]; 92.5% RH, 40° C. and 60° C., up to 30 d): good chemical stability | Maximum individual impurity ([1]; 92.5% RH-6 d): 0.468% | RRT 0.31 impurity ([1]; 92.5% RH-6 d): 0.468% | RRT 0.36 impurity ([1]; 92.5% RH-6 d): 0.107% | RRT 0.49 impurity ([1]; 92.5% RH-6 d): 0.191% | RRT 0.72 impurity ([1]; 92.5% RH-6 d): 0.244% | RRT 1.00 (purity by HPLC) ([1]; 92.5% RH-6 d): 98.503% | RRT 1.14 impurity ([1]; 92.5% RH-6 d): 0.068% | RRT 1.33 impurity ([1]; 92.5% RH-6 d): 0.066% | Total impurity ([1]; 92.5% RH-6 d): 1.497% | Maximum individual impurity ([1]; 92.5% RH-10 d): 0.518% | RRT 0.31 impurity ([1]; 92.5% RH-10 d): 0.518% | RRT 0.36 impurity ([1]; 92.5% RH-10 d): 0.110% | RRT 0.49 impurity ([1]; 92.5% RH-10 d): 0.206% | RRT 0.72 impurity ([1]; 92.5% RH-10 d): 0.246% | RRT 1.00 (purity by HPLC) ([1]; 92.5% RH-10 d): 98.358% | RRT 1.14 impurity ([1]; 92.5% RH-10 d): 0.073% | RRT 1.33 impurity ([1]; 92.5% RH-10 d): 0.066% | Total impurity ([1]; 92.5% RH-10 d): 1.642% | Maximum individual impurity ([1]; 92.5% RH-30 d): 0.475% | RRT 0.31 impurity ([1]; 92.5% RH-30 d): 0.475% | RRT 0.36 impurity ([1]; 92.5% RH-30 d): 0.099% | RRT 0.49 impurity ([1]; 92.5% RH-30 d): 0.137% | RRT 0.72 impurity ([1]; 92.5% RH-30 d): 0.243% | RRT 1.00 (purity by HPLC) ([1]; 92.5% RH-30 d): 98.499% | RRT 1.14 impurity ([1]; 92.5% RH-30 d): 0.075% | RRT 1.33 impurity ([1]; 92.5% RH-30 d): 0.056% | Total impurity ([1]; 92.5% RH-30 d): 1.501%
SMILES: CCc1cc2ncc(CN3CCN(c4ccc(C(=O)NC5CC5)nc4)CC3)cc2[nH]c1=O [crystal form G, N-cyclopropyl-5-(4-((7-ethyl-6-oxo-5,6-dihydro-1,5-naphthyridin-3-yl)methyl)piperazin-1-yl)pyridine carboxamide]

F [3]: 98.8% | IC50 [4]: 2 nM
SMILES: CCc1cc2ncc(CN3CCN(c4ccc(C(=O)NC5CC5)nc4)CC3)cc2[nH]c1=O [Compound I, N-cyclopropyl-5-(4-((7-ethyl-6-oxo-5,6-dihydro-1,5-naphthyridin-3-yl)methyl)piperazin-1-yl)pyridine carboxamide]
tumor growth after the drug withdrawal ([2]; 14 days drug withdrawal observation): did not grow again | body weight of the animals ([2]; Day 0-10 1 mg/kg, Day 11-28 0.1 mg/kg, once a day): no significant decrease | TGI ([2]; after 28 days of administration, Day 0-10 1 mg/kg, Day 11-28 0.1 mg/kg, once a day): 119% | inhibition at 10 µM ([4]; 10 μM, read-out: Max inh. % 10 μM): 89.4%
